Measurements taken from publication PMC8262356, “SLC26A6-selective inhibitor identified in a small-molecule screen blocks fluid absorption in small intestine” (JCI Insight, 2021).

How the values were obtained:
PAT1 (murine slc26a6) = target: T1, PAT1 (murine slc26a6) (Mus musculus, UniProt Q8CIW6); experiment: PAT1-mediated Cl-/SCN- exchange, YFP fluorescence quenching in FRT cells; format: cell-based; conditions: read-out: IC50, inhibition of PAT1-mediated Cl-/SCN- exchange
T1 construct: host or cells: Fischer rat thyroid (FRT) cells, lentiviral transduction (pLVX-IRES-mCherry-slc26a6), clonal line FRT-YFP-slc26a6
T1 sequence (Q8CIW6 24-758 limits assumed): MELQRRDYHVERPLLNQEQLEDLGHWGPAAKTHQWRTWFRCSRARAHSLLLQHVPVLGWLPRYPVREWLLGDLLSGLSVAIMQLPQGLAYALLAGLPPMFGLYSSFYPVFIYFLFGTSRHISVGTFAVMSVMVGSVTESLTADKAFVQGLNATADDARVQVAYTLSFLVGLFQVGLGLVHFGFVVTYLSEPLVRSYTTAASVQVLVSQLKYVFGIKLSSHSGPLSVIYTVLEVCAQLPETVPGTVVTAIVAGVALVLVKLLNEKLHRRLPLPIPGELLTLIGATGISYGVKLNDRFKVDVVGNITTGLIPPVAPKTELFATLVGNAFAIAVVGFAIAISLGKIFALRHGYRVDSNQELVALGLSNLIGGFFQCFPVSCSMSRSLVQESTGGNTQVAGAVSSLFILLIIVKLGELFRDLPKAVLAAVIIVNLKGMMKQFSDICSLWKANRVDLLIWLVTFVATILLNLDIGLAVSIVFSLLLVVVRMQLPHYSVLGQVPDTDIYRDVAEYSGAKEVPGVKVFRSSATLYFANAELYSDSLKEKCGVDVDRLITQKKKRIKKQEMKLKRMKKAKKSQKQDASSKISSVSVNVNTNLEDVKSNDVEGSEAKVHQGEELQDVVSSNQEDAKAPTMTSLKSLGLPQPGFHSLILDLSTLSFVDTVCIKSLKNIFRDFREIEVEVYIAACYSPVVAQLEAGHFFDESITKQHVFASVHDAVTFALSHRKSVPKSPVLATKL
Method: As PAT1 functions as a general monovalent anion exchanger, PAT1inh-B01 inhibition was studied for different modes of anion exchange. […] To measure Cl^–/HCO3^– exchange, the time course of cytoplasmic pH was measured, using BCECF as a pH indicator, in response to a gluconate gradient to drive exchange of cytoplasmic Cl^– with extracellular HCO3^– producing cytoplasmic alkalinization (Figure 2B) as done before for DRA and pendrin ([7], [10], [11]).
Figure 2 PAT1inh-B01 inhibition of PAT1-mediated anion exchange. (A) YFP fluorescence quenching curves (left), as in Figure 1B, for inhibition of PAT1-mediated exchange of Cl^– for SCN^–, with concentration dependence of PAT1inh-B01 effect (right) (mean ± SEM, n = 3). (B) Inhibition of Cl^–/HCO3^– exchange measured in BCECF-loaded FRT cells by PAT1inh-B01 (mean ± SEM, n = 16–32). (C) Time course of PAT1 inhibition following addition of 1 μM PAT1inh-B01 to cells (mean ± SEM, n = 3). (D) Effects of second messenger signaling on PAT1-mediated Cl^–/I^– exchange. YFP fluorescence quenching curves (left) and summary data (right) following cell exposure to agonists of cAMP (20 μM forskolin + 200 μM IBMX), cGMP (100 μM 8-Br-cGMP) and Ca^+2 (100 μM ATP), or vehicle control (1% DMSO). Mean ± SEM, n = 16 experiments per group, differences not significant by 1-way ANOVA and post hoc Newman-Keuls multiple comparisons test.

TMEM16A = experiment: Selectivity: I- influx in FRT cells coexpressing YFP and TMEM16A; format: cell-based; conditions: 25 μM
Method: PAT1inh-B01 selectivity was studied by testing its effects on related SLC26A family anion transporters and the Cl^– channel TMEM16A. These measurements used a similar Cl^–/I^– exchange protocol, but FRT cells separately expressed each of the SLC26A family members or TMEM16A. […] PAT1inh-B01 selectivity was also tested by short-circuit current (Isc) in well-differentiated human bronchial epithelial (HBE) cells, which have a complex ion transport mechanism that includes cystic fibrosis transmembrane conductance regulator (CFTR), epithelial Na^+ channel (ENaC), and Ca^+2-activated chloride channels (CaCCs) ([13]). […] Potential PAT1inh-B01 cytotoxicity was studied in FRT cells.
Figure 3 PAT1inh-B01 selectivity and cytotoxicity. […] Cl^–/I^– exchange or I^– influx measured in FRT cells coexpressing YFP and SLC26A isoforms or TMEM16A, with data shown for 25 μM PAT1inh-B01, DMSO vehicle control, and 500 μM niflumic acid (positive control for SLC26A transporters) or 10 μM TMinh-23 (positive control for TMEM16A). […] (C) (left) Short-circuit current (Isc) in well-differentiated HBE cells measured in the absence (top) and presence (bottom) of 25 μM PAT1inh-B01. […]
YFP-based cellular assays of slc26a3, slc26a4, SLC26A9, and TMEM16A function were performed as described previously ([7]). […] The activities of ENaC, CFTR, and CaCC were determined using well-differentiated HBE cells as described previously ([13]). […]

SMILES: Cc1c(Br)c(C(F)(F)F)nn1CC(=O)N1CCc2nc3cc(-c4ccccc4)[nH]n3c(=O)c2C1 [PAT1inh-B01]
- IC50 (PAT1 (murine slc26a6)): 260 nM
- inhibition of TMEM16A (TMEM16A): did not significantly inhibit
